The values below come from PubChem BioAssay AID2060615 (Molecular Pharmacology Branch, DTP, NCI, 2025).

In the test the test system is 496974-208-R-J2-PDC complex spheroids, growth % test/control. The test is described as follows: Anticancer human tumor 496974-208-R-J2-PDC patient-derived pancreatic carcinoma cell line growth inhibition [CLK]. The conditions noted are these: for viability, T/C: stronger effect = lower value; for IC50: curve of compound. The text has this:
A high-throughput screen of multi-cell type tumor spheroids was designed to identify active combinations of […] and targeted small molecules. Complex spheroids include a stromal component modeled by human endothelial cells (HUVEC) and fibroblasts modeled by human mesenchymal stem cells (MSCs). The concentration ranges selected for each drug and investigational agent were based upon clinically achievable concentrations if the clinical Cmax of the agent was known.
Compounds. The drugs and investigational agents: cirtuvivint (SM08502; NSC835563), CC-671 (NSC850746), vemurafenib (NSC761431), tapotoclax (NSC804041), sotorasib (NSC818433), adagrasib (NSC831453), MRTX-1133 (NSC836407), BAY2416964 (NSC825713), copanlisib (NSC816437), inavolisib (NSC800729), abemaciclib (NSC768073), osimertinib (NSC779217), entinostat (NSC756642), eltanexor (KPT-8602, NSC794443), venetoclax (NSC766270), ceralasertib (NSC777638), bortezomib (NSC756655), olaparib (NSC753686), talazoparib (NSC767125), alisertib (NSC759677), peposertib (NSC802822), gemcitabine (NSC613327), 5-fluorouracil (NSC19893), SN-38 (NSC673596), oxaliplatin (NSC266046), paclitaxel (NSC125973), and doxorubicin (NSC123127), were obtained from the National Cancer Institute (NCI) Developmental Therapeutics Program Chemical Repository. The FDA-approved anticancer drug set is available from the Developmental Therapeutics Program at https://dtp.cancer.gov/organization/dscb/obtaining/available plates.htm. […] The stock solutions were prepared in dimethyl sulfoxide (DMSO, Sigma-Aldrich, St. Louis, MO, cat. D2650), except for the platinum complexes which were prepared in saline (Quality Biological, Gaithersburg, MD, cat. 114-055-101), at 800-fold the tested concentration and stored at -70 degrees C prior to their use. All drugs and investigational agents were tested over a range starting from a high concentration at or near the clinical Cmax and decreasing in half-log increments. If the clinical Cmax for an agent had not been determined, the highest concentration tested was 10 microM.
Cell Culture. All cells were maintained in an incubator at 37 degrees C and 5% CO2 with 95% humidity. The PDC lines were cultured according to standard operating procedures established by the NCI PDMR. Briefly, all PDCs were thawed and cultured in Matrigel-coated flasks prepared with a working solution of 1X Ham's F-12 nutrient mix, without supplementation (Invitrogen, Waltham, MA, cat. 11765054), 100 U/mL penicillin-streptomycin (Invitrogen, cat. 15140122), and 2.5% Matrigel (Corning Inc., Corning, NY, cat. 354248) for the first three passages. The 947758-054-R-J2-PDC line was cultured in 6B/Colon 1A media, which includes advanced DMEM/F-12 (Thermo Fisher Scientific, cat. 12634028), 10 mM HEPES (Thermo Fisher Scientific, cat. 15630080), 1X GlutaMAX supplement (Thermo Fisher Scientific, cat. 35050061), 0.1 mg/mL primocin (InvivoGen, cat. ant-pm-2), 10% defined fetal bovine serum, heat inactivated (HyClone Laboratories Inc., cat. SH30070.03HI), 1.25 mM N-Acetyl-L-cysteine (Sigma-Aldrich, cat. A9165), 10 mM nicotinamide (Sigma-Aldrich, cat. N0636), 1X B-27 supplement (Thermo Fisher Scientific, cat. 17504044), 1X N-2 supplement (Thermo Fisher Scientific, cat. 17502048), and 10 microM Y-27632 dihydrochloride (Tocris Bioscience, cat. 1254). The 876862-298-R-J1-PDC was cultured in 6E media, which includes all 6B/Colon 1A media components plus 50% L-WRN conditioned media (ATCC, cat. CRL-3276), 50 ng/mL recombinant human EGF recombinant protein (hEGF; Thermo Fisher Scientific, cat. PHG0311), 10 ng/mL recombinant human fibroblast growth factor 10 (hGFG-10; PeproTech, cat. 100-26), 1 ng/mL recombinant human fibroblast growth factor 2 (hFGF-2; PeproTech, cat. 100-18B), and 1 µM prostaglandin E2 (PGE2; Tocris, cat. 2296). The 227483-062-R1-J1-PDC line was cultured in Panc media, containing all 6E components except hFGF-2, with the addition of 500 nM SB-431542 (Selleckchem, cat. S1067) and 10 nM gastrin (Tocris, cat. 3006). […]

SMILES strings stand for the structures. Several values for one entry are separate records, joined by “and”; a condition that tells them apart may be missing. Equal values may be shown once. Bounds are passed on as bounds.

By viability, T/C is commonly meant the result in the treated group divided by that in the control group, in per cent. As a reminder, the IC50 is the concentration that gives 50% inhibition.
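Further: spheroids exposed to the drugs for 7 days before readout.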
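Wherever viability, T/C is given: 100% = DMSO vehicle control wells.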

In the case of `CC1COCCN1c1cc(C2(S(C)(=N)=O)CC2)nc(-c2ccnc3[nH]ccc23)n1` (stereo not given), the IC50 is 5.36 µM and 7.19 µM. In addition, the viability, T/C (compound 0.0316 µM) is 119% and 107%. Moreover, where the note is “compound 0.1 µM”, the viability, T/C was 105% and 97.9%. Moreover, the viability, T/C (compound 0.316 µM) was 85.5% and 91%. In addition, under “compound 1 µM”, the viability, T/C was 94.4% and 89.3%. Further, the viability, T/C (compound 3.16 µM) was 57.5% and 62%. Further, the viability, T/C (compound 10 µM) was 36% and 44.6%.
For the compound `COC1C=CCC(C)C(C)S(=O)(=O)NC(=O)c2ccc3c(c2)N(CC2CCC21)CC1(CCCc2cc(Cl)ccc21)CO3` (stereo not given), the IC50 was 6.38 µM and 4.15 µM. In addition, under “compound 0.0316 µM”, the viability, T/C was 99.2% and 100%. Where the note is “compound 0.1 µM”, the viability, T/C is 95.3% and 65.2%. In addition, where the note is “compound 0.316 µM”, the viability, T/C was 89.4% and 82.5%. The viability, T/C (compound 1 µM) is 75.1% and 74.3%. The viability, T/C (compound 3.16 µM) was 60.6% and 58.6%. Moreover, the viability, T/C (compound 10 µM) was 43.4% and 26%.
Consider `COc1ccc([C@@H](O)c2cc(-c3ncnc4cc(N5CCOCC5)ccc34)c(F)cc2Cl)nn1`, for which the IC50 is 4.92 µM and 7.03 µM. For the setting “compound 0.0316 µM”, the viability, T/C is 104%. Further, the viability, T/C (compound 0.1 µM) is 91.3% and 92.1%. The viability, T/C (compound 0.316 µM) is 87% and 103%. Besides, where the note is “compound 1 µM”, the viability, T/C is 77.4% and 80.6%. The viability, T/C (compound 3.16 µM) was 64.5% and 71.6%. Moreover, the viability, T/C (compound 10 µM) was 31.2% and 40.8%.
In the case of `COc1cccc2c1C(=O)c1c(O)c3c(c(O)c1C2=O)CC(O)(C(=O)CO)CC3OC1CC(N)C(O)C(C)O1` (stereo not given), the IC50 was 0.121 µM and 0.177 µM. Also, the viability, T/C (compound 0.0316 µM) was 73.2% and 85.7%. Further, where the note is “compound 0.1 µM”, the viability, T/C was 53.8% and 61.2%. Besides, for the setting “compound 0.316 µM”, the viability, T/C was 26% and 39.9%. Where the note is “compound 1 µM”, the viability, T/C was 2.82% and 3.77%. In addition, the viability, T/C (compound 3.16 µM) was 0.71% and 0.67%. In addition, the viability, T/C (compound 10 µM) was 1.39% and 0.57%.
In the case of `Nc1ccccc1NC(=O)c1ccc(CNC(=O)OCc2cccnc2)cc1`, the IC50 was 4.37 µM and 4.16 µM. The viability, T/C (compound 0.0316 µM) was 104% and 112%. Besides, the viability, T/C (compound 0.1 µM) is 86.3% and 98.7%. Also, the viability, T/C (compound 0.316 µM) is 85.9% and 86.6%. For the same compound, where the note is “compound 1 µM”, the viability, T/C was 77.5% and 72.4%. For the same compound, the viability, T/C (compound 3.16 µM) was 74.1% and 77.9%. For the same compound, the viability, T/C (compound 10 µM) is 0.53% and 0.83%.
Consider `Nc1ccn(C2OC(CO)C(O)C2(F)F)c(=O)n1` (stereo not given), for which the viability, T/C reads like this: (compound 0.0316 µM) 89.3% and 93.5%; (compound 0.1 µM) 67.2% and 76.4%; (compound 0.316 µM) 57.7% and 72.4%; (compound 1 µM) 44.9% and 58%; (compound 3.16 µM) 50.7% and 63.3%; (compound 10 µM) 44.3% and 53.2%.
As to `O=C(c1cc(Cc2n[nH]c(=O)c3ccccc23)ccc1F)N1CCN(C(=O)C2CC2)CC1`, the IC50 was more than 10 µM. For the same compound, under “compound 0.0316 µM”, the viability, T/C was 99.1%. Moreover, the viability, T/C (compound 0.1 µM) was 85.5%. Where the note is “compound 0.316 µM”, the viability, T/C was 94.7%. Moreover, the viability, T/C (compound 1 µM) was 98.4%. Besides, for the setting “compound 3.16 µM”, the viability, T/C was 95.2%. For the same compound, under “compound 10 µM”, the viability, T/C is 86.7%.
As for `O=c1[nH]cc(F)c(=O)[nH]1`, the IC50 is 6.83 µM and > 10 µM. For the same compound, where the note is “compound 0.0316 µM”, the viability, T/C is 114% and 115%. The viability, T/C (compound 0.1 µM) is 103% and 95.1%. The viability, T/C (compound 0.316 µM) is 101%. Further, the viability, T/C (compound 1 µM) is 78.4% and 79.6%. In addition, the viability, T/C (compound 3.16 µM) was 55.1% and 71.4%. In addition, the viability, T/C (compound 10 µM) was 47.6% and 53.4%.
